Measured values from US20250034125A1, “COMPOUNDS AND USES THEREOF” (JANSSEN PHARMACEUTICA NV, priority 2019, published 2025).
Read-outs that look alike come from different tables or passages of the source.

Legend:
[1] = target: T1, SCD1 (Homo sapiens, UniProt O00767); assay: Growth inhibition of yeast (ole1Δ) expressing human SCD1 as the sole desaturase; assay type: cell-based
T1 construct: host or cells: Saccharomyces cerevisiae ole1Δ strain (W303 pdr1Δ pdr3Δ background), plasmid pRS316, TDH3 promoter
T1 sequence (O00767 1-359): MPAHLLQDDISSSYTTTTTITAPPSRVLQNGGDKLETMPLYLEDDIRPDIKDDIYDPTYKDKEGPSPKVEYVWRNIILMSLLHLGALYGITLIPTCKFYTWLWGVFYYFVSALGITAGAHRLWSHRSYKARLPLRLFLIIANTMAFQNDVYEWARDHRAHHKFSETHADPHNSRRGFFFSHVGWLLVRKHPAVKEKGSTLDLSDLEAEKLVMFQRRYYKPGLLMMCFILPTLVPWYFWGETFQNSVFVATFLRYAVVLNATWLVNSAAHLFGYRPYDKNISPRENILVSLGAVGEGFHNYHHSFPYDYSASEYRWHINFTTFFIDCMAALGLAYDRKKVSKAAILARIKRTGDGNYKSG

[2] = target: T2, SCD5 (Homo sapiens, UniProt Q86SK9); assay: Growth inhibition of yeast (ole1Δ) expressing human SCD5 as the sole desaturase; assay type: cell-based
T2 construct: host or cells: Saccharomyces cerevisiae ole1Δ strain (W303 pdr1Δ pdr3Δ background), plasmid pRS316, TDH3 promoter
T2 sequence (Q86SK9 1-330): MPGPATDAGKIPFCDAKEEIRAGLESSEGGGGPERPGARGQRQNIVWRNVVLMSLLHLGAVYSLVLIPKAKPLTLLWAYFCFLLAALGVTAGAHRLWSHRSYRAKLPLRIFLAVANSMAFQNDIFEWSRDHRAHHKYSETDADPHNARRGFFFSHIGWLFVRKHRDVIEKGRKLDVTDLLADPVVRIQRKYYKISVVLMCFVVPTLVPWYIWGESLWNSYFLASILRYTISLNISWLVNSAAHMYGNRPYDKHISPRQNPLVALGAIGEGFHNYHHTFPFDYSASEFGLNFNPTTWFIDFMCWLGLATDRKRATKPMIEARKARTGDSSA

[3] = yeast strain with SCD1 plasmid, OD600 growth read at 40 h, read-out: SCD1 IC50
[4] = yeast strain with SCD5 plasmid, OD600 growth read at 40 h, read-out: SCD5 IC50

Compound Cn1nc(NC(=O)N2CCC(Oc3cc(F)cc(F)c3)CC2)ccc1=O [Compound 79, 4-(3,5-difluorophenoxy)-N-(1-methyl-6-oxo-1,6-dihydropyridazin-3-yl)piperidine-1-carboxamide] has an IC50 [1, 3] of 0.48 µM and an IC50 [2, 4] of 0.2 µM.
Cn1nc(NC(=O)N2CCC(Cc3cc(F)c(F)cc3Cl)CC2)ccc1=O [Compound 61, 4-(2-chloro-4,5-difluorobenzyl)-N-(1-methyl-6-oxo-1,6-dihydropyridazin-3-yl)piperidine-1-carboxamide] gave an IC50 [1, 3] of 0.08 µM and an IC50 [2, 4] of 0.04 µM.
Cn1nc(NC(=O)N2CCC(Cc3cc(F)cc(F)c3Cl)CC2)ccc1=O [Compound 64, 4-(2-chloro-3,5-difluorobenzyl)-N-(1-methyl-6-oxo-1,6-dihydropyridazin-3-yl)piperidine-1-carboxamide] gave an IC50 [1, 3] of 0.05 µM and an IC50 [2, 4] of 0.01 µM.
For Cn1cc(-c2nnc(N3CCC(Cc4cc(F)cc(F)c4)CC3)o2)ccc1=O [Compound 19, 5-(5-(4-(3,5-difluorobenzyl)piperidin-1-yl)-1,3,4-oxadiazol-2-yl)-1-methylpyridin-2(1H)-one], the IC50 [1, 3] was 9.72 µM and the IC50 [2, 4] was 1 µM.
For Cn1nc(NC(=O)N2CCC(=Cc3cc(F)cc(F)c3)CC2)ccc1=O [Compound 33, 4-(3,5-difluorobenzylidene)-N-(1-methyl-6-oxo-1,6-dihydropyridazin-3-yl)piperidine-1-carboxamide], the IC50 [1, 3] was 0.44 µM and the IC50 [2, 4] was 0.14 µM.
Cn1nc(NC(=O)N2CCC[C@@H](c3cc(F)cc(F)c3)CC2)ccc1=O [Compound 32] was tested, and the IC50 [1, 3] was 7.2 µM and the IC50 [2, 4] was 21 µM.
Work on Cn1nc(NC(=O)N2CCC(Cc3ccc(Cl)cc3)CC2)ccc1=O [Compound 43] yielded an IC50 [1, 3] of 8.58 µM and an IC50 [2, 4] of 2.24 µM.
Cn1nc(NC(=O)N2CCC(Cc3cc(F)ccc3F)CC2)ccc1=O [Compound 53] showed an IC50 [1, 3] of 1.18 µM and an IC50 [2, 4] of 0.13 µM.
Cn1nc(NC(=O)N2CCC(Oc3cc(F)ccc3Cl)CC2)ccc1=O [Compound 82, 4-(2-chloro-5-fluorophenoxy)-N-(1-methyl-6-oxo-1,6-dihydropyridazin-3-yl)piperidine-1-carboxamide] showed an IC50 [1, 3] of 0.05 µM and an IC50 [2, 4] of 0.02 µM.
Cn1nc(NC(=O)N2CC[C@H](Oc3ccc(F)c(F)c3)C2)ccc1=O [Compound 29, (3S)-3-(3,4-difluorophenoxy)-N-(1-methyl-6-oxo-1,6-dihydropyridazin-3-yl)pyrrolidine-1-carboxamide] gave an IC50 [1, 3] of 0.42 µM and an IC50 [2, 4] of 2.8 µM.
Compound Cn1nc(NC(=O)N2CCC(F)(Cc3cc(F)c(F)c(Cl)c3)CC2)ccc1=O [Compound 66, 4-(3-chloro-4,5-difluorobenzyl)-4-fluoro —N-(1-methyl-6-oxo-1,6-dihydropyridazin-3-yl)piperidine-1-carboxamide] has an IC50 [1, 3] of 6.5 µM and an IC50 [2, 4] of 0.92 µM.
Cn1nc(NC(=O)N2CC(Cc3cccc(Cl)c3)C2)ccc1=O [Compound 22, 3-(3-chlorobenzyl)-N-(1-methyl-6-oxo-1,6-dihydropyridazin-3-yl)azetidine-1-carboxamide] showed an IC50 [1, 3] of 2.59 µM and an IC50 [2, 4] of 0.95 µM.
For Cn1cc(-c2nc(N3CCC(Cc4cc(F)cc(F)c4)CC3)no2)ccc1=O [Compound 17, 5-(3-(4-(3,5-difluorobenzyl)piperidin-1-yl)-1,2,4-oxadiazol-5-yl)-1-methylpyridin-2(1H)-one], the IC50 [1, 3] was 0.72 µM and the IC50 [2, 4] was 0.01 µM.
In the case of Cn1nc(NC(=O)N2CCC(Cc3cc(F)cc(Cl)c3)CC2)ccc1=O [Compound 55, 4-(3-chloro-5-fluorobenzyl)-N-(1-methyl-6-oxo-1,6-dihydropyridazin-3-yl)piperidine-1-carboxamide], the IC50 [1, 3] is reported as 0.16 µM and the IC50 [2, 4] is reported as 0.02 µM.
In the case of Cn1nc(NC(=O)N2CCC(Nc3cc(F)cc(F)c3)CC2)ccc1=O [Compound 94, 4-((3,5-difluorophenyl)amino)-N-(1-methyl-6-oxo-1,6-dihydropyridazin-3-yl)piperidine-1-carboxamide], the IC50 [1] is reported as > 45 µM and the IC50 [2] is reported as > 45 µM.
Cn1nc(NC(=O)N2CC(Oc3ccc(F)c(F)c3)C2)ccc1=O [Compound 23, 3-(3,4-difluorophenoxy)-N-(1-methyl-6-oxo-1,6-dihydropyridazin-3-yl)azetidine-1-carboxamide] showed an IC50 [1, 3] of 1.3 µM and an IC50 [2, 4] of 1.8 µM.
CCn1nc(NC(=O)N2CCC(Cc3cc(F)cc(F)c3)CC2)ccc1=O [Compound 125, 4-(3,5-difluorobenzyl)-N-(1-ethyl-6-oxo-1,6-dihydropyridazin-3-yl)piperidine-1-carboxamide] gave an IC50 [1, 3] of 4.96 µM and an IC50 [2, 4] of 1.15 µM.
Work on Cn1nc(NC(=O)N2CCC(Oc3cc(F)ccc3C(F)(F)F)CC2)ccc1=O [Compound 86, 4-(5-fluoro-2-(trifluoromethyl)phenoxy)-N-(1-methyl-6-oxo-1,6-dihydropyridazin-3-yl)piperidine-1-carboxamide] yielded an IC50 [1, 3] of 0.01 µM and an IC50 [2, 4] of 0.01 µM.
Work on Cn1nc(NC(=O)N2CC[C@H](Oc3cc(F)cc(F)c3)C2)ccc1=O [Compound 30, (3S)-3-(3,5-difluorophenoxy)-N-(1-methyl-6-oxo-1,6-dihydropyridazin-3-yl)pyrrolidine-1-carboxamide] yielded an IC50 [1, 3] of 0.33 µM and an IC50 [2, 4] of 2.9 µM.
For Cn1cc(CC(=O)N2CCC(Cc3cccc(Cl)c3)CC2)ccc1=O [Compound 4, 5-(2-(4-(3-chlorobenzyl)piperidin-1-yl)-2-oxoethyl)-1-methylpyridin-2(1H)-one], the IC50 [1, 3] was > 45 µM and the IC50 [2, 4] was 24.7 µM.
For Cn1nc(NC(=O)N2CCC(Oc3ccccc3Cl)CC2)ccc1=O [Compound 69], the IC50 [1, 3] was 0.42 µM and the IC50 [2, 4] was 0.15 µM.
For Cn1nc(NC(=O)N2CCC(NCc3cc(F)cc(F)c3)CC2)ccc1=O [Compound 104, 4-(3,5-difluorobenzylamino)-N-(1-methyl-6-oxo-1,6-dihydropyridazin-3-yl)piperidine-1-carboxamide], the IC50 [1, 3] was > 45 µM and the IC50 [2, 4] was > 45 µM.
With Cn1nc(NC(=O)N2CCC(OCc3cccc(F)c3)CC2)ccc1=O [Compound 96, 4-(3-fluorobenzyloxy)-N-(1-methyl-6-oxo-1,6-dihydropyridazin-3-yl)piperidine-1-carboxamide] the IC50 [1, 3] was > 45 µM and the IC50 [2, 4] was 26.4 µM.
For O=C(Cc1ccc(=O)[nH]n1)N1CCC(Oc2cccc(Cl)c2)CC1 [Compound 36, 6-(2-(4-(3-chlorophenoxy)piperidin-1-yl)-2-oxoethyl)pyridazin-3(2H)-one], the IC50 [1, 3] was 25.5 µM and the IC50 [2, 4] was 5.35 µM.
For Cn1nc(NC(=O)N2CCC(Cc3ccc(F)c(Cl)c3)CC2)ccc1=O [Compound 54, 4-(3-chloro-4-fluorobenzyl)-N-(1-methyl-6-oxo-1,6-dihydropyridazin-3-yl)piperidine-1-carboxamide], the IC50 [1, 3] was 0.44 µM and the IC50 [2, 4] was 0.04 µM.
Cn1nc(NC(=O)N2CCC(Oc3ccc(F)cc3Cl)CC2)ccc1=O [Compound 83, 4-(2-chloro-4-fluorophenoxy)-N-(1-methyl-6-oxo-1,6-dihydropyridazin-3-yl)piperidine-1-carboxamide] gave an IC50 [1, 3] of 4.36 µM and an IC50 [2, 4] of 6.21 µM.
Cn1nc(NC(=O)N2CCC(Oc3ccc(F)c(F)c3)CC2)ccc1=O [Compound 80] showed an IC50 [1, 3] of 1.98 µM and an IC50 [2, 4] of 1.19 µM.
CN(c1cc(F)cc(F)c1)C1CCN(C(=O)Nc2ccc(=O)n(C)n2)CC1 [Compound 95] was tested, and the IC50 [1, 3] was > 45 µM and the IC50 [2, 4] was 12 µM.
For Cn1nc(NC(=O)N2CCC(Cc3cc(F)c(F)c(Cl)c3)CC2)ccc1=O [Compound 63, 4-(3-chloro-4,5-difluorobenzyl)-N-(1-methyl-6-oxo-1,6-dihydropyridazin-3-yl)piperidine-1-carboxamide], the IC50 [1, 3] was 0.13 µM and the IC50 [2, 4] was 0.01 µM.
For Cn1cc(NC(=O)N2CCC(Cc3cc(F)cc(Cl)c3)CC2)ccc1=O [Compound 8, 4-(3-chloro-5-fluorobenzyl)-N-(1-methyl-6-oxo-1,6-dihydropyridin-3-yl)piperidine-1-carboxamide], the IC50 [1, 3] was 2.32 µM and the IC50 [2, 4] was 0.83 µM.
Cn1nc(NC(=O)N2CCC(COc3ccccc3Cl)CC2)ccc1=O [Compound 98, 4-((2-chlorophenoxy)methyl)-N-(1-methyl-6-oxo-1,6-dihydropyridazin-3-yl)piperidine-1-carboxamide] gave an IC50 [1, 3] of 5.18 µM and an IC50 [2, 4] of 1.35 µM.
Cn1nc(NC(=O)N2CCC(Oc3ccc(C(F)(F)F)cc3)CC2)ccc1=O [Compound 76, N-(1-methyl-6-oxo-1,6-dihydropyridazin-3-yl)-4-(4-(trifluoromethyl)phenoxy) piperidine-1-carboxamide] was tested, and the IC50 [1, 3] was 9.77 µM and the IC50 [2, 4] was 4.8 µM.
For O=c1ccc(-c2noc(N3CCC(Cc4ccc(F)c(F)c4)CC3)n2)c[nH]1 [Compound 1], the IC50 [1, 3] was 14 µM and the IC50 [2, 4] was 3.8 µM.
With Cn1nc(NC(=O)N2CCC=C(c3ccc(Cl)cc3)CC2)ccc1=O [Compound 133, 4-(4-chlorophenyl)-N-(1-methyl-6-oxo-1,6-dihydropyridazin-3-yl)-2,3,6,7-tetrahydro-1H-azepine-1-carboxamide] the IC50 [1, 3] was > 45 µM and the IC50 [2, 4] was > 45 µM.
Work on Cc1cc(NC(=O)N2CCC(Cc3ccc(F)c(F)c3)CC2)nn(C)c1=O [Compound 129] yielded an IC50 [1, 3] of 0.31 µM and an IC50 [2, 4] of 0.08 µM.
